# According to ChEMBL document CHEMBL1201862, “PubChem BioAssay data set” (2004):
#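 Each compound was tested at five concentrations against cells in 96-well plates for 48 hours. GI50 is the concentration that inhibits growth by half.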 Active and inactive are the calls of the source. No stated cut-off is given here; in the data, active = GI50 up to about 1.1 µM and inactive = higher.
# Tests used:
# Experiment in all cases: NCI anticancer screen, dose series, 48 h
# LOX IMVI = tested on: LOX IMVI
# RPMI-8226 = tested on: RPMI-8226
# HCT-116 = tested on: HCT-116
# SK-MEL-5 = tested on: SK-MEL-5
# TK-10 = tested on: TK-10
# A498 = tested on: A498
# 786-0 = tested on: 786-0
# SNB-19 = tested on: SNB-19
# SK-OV-3 = tested on: SK-OV-3
# A549 = tested on: A549
# KM12 = tested on: KM12
# U-251 = tested on: U-251
# NCI-H460 = tested on: NCI-H460
# SNB-78 = tested on: SNB-78
# SK-MEL-28 = tested on: SK-MEL-28
# Malme-3M = tested on: Malme-3M
# NCI-H522 = tested on: NCI-H522
# DU-145 = tested on: DU-145
# T47D = tested on: T47D
# PC-3 = tested on: PC-3
SMILES,GI50 (LOX IMVI),GI50 (RPMI-8226),GI50 (HCT-116),GI50 (SK-MEL-5),GI50 (TK-10),GI50 (A498),GI50 (786-0),GI50 (SNB-19),GI50 (SK-OV-3),GI50 (A549),GI50 (KM12),GI50 (U-251),GI50 (NCI-H460),GI50 (SNB-78),GI50 (SK-MEL-28),GI50 (Malme-3M),GI50 (NCI-H522),GI50 (DU-145),GI50 (T47D),GI50 (PC-3)
CC(=O)CC(=O)N(CCN(C(=O)CC(C)=O)c1ccccc1)c1ccccc1,> 100 µM (inactive),72.9 µM (inactive),> 100 µM (inactive),> 100 µM (inactive),> 100 µM (inactive),> 100 µM (inactive),> 100 µM (inactive),> 100 µM (inactive),> 100 µM (inactive),> 100 µM (inactive),> 100 µM (inactive),> 100 µM (inactive),> 100 µM (inactive),> 100 µM (inactive),> 100 µM (inactive),> 100 µM (inactive),84.7 µM (inactive),–,–,–
COC(=O)[C@@]12C(=O)C=CC(=O)[C@@H]1C1C(=CC2COC(C)=O)O[C@@H]2OC3(CCCCC3)O[C@H]12 (some centres undefined),9.95 µM (inactive),2.99 µM (inactive),5.69 µM (inactive),18 µM (inactive),8.38 µM (inactive),22.8 µM (inactive),7.1 µM (inactive),16.1 µM (inactive),16.1 µM (inactive),14.5 µM (inactive),13 µM (inactive),15.6 µM (inactive),16.9 µM (inactive),21.5 µM (inactive),17.2 µM (inactive),15.7 µM (inactive),2.21 µM (inactive),18.3 µM (inactive),3.66 µM (inactive),12.6 µM (inactive)
CC1=CCCC2C(C=O)(C1)CC(C)C2(CO)CC/C(=C/CO)CO (centres undefined),> 100 µM (inactive),67.3 µM (inactive),69.5 µM (inactive),> 100 µM (inactive),> 100 µM (inactive),> 100 µM (inactive),> 100 µM (inactive),–,> 100 µM (inactive),> 100 µM (inactive),> 100 µM (inactive),> 100 µM (inactive),> 100 µM (inactive),> 100 µM (inactive),> 100 µM (inactive),> 100 µM (inactive),38.4 µM (inactive),–,–,–
O=C1/C(=C/c2ccc(Cl)c(Cl)c2)CNC/C1=C\c1ccc(Cl)c(Cl)c1,5.07 µM (inactive),3.75 µM (inactive),2.57 µM (inactive),36.5 µM (inactive),31 µM (inactive),18.3 µM (inactive),2.39 µM (inactive),1.46 µM (inactive),40.7 µM (inactive),14.8 µM (inactive),6.76 µM (inactive),5.11 µM (inactive),10.3 µM (inactive),> 57.4 µM (inactive),26.3 µM (inactive),28.1 µM (inactive),11 µM (inactive),49 µM (inactive),–,13.9 µM (inactive)
COc1cc2c(c(OC)c1OC)-c1ccc(OC)c(=O)cc1C(NC(=O)COc1ccccc1)CC2 (centres undefined),< 0.01 µM (active),< 0.01 µM (active),< 0.01 µM (active),< 0.01 µM (active),0.627 µM (active),< 0.01 µM (active),< 0.01 µM (active),< 0.01 µM (active),0.0282 µM (active),< 0.01 µM (active),< 0.01 µM (active),< 0.01 µM (active),< 0.01 µM (active),< 0.01 µM (active),0.0498 µM (active),< 0.01 µM (active),< 0.01 µM (active),< 0.01 µM (active),39.9 µM (inactive),< 0.01 µM (active)
CC1CCCC(C(O)CC2CC(=O)N(c3ccccc3)C(=O)C2)C1=O (centres undefined),> 100 µM (inactive),> 100 µM (inactive),> 100 µM (inactive),–,> 100 µM (inactive),> 100 µM (inactive),> 100 µM (inactive),> 100 µM (inactive),> 100 µM (inactive),> 100 µM (inactive),> 100 µM (inactive),> 100 µM (inactive),> 100 µM (inactive),> 100 µM (inactive),> 100 µM (inactive),> 100 µM (inactive),> 100 µM (inactive),–,–,–
Cc1c(C(=O)/C=C/c2ccccc2)[n+]([O-])c2ccccc2[n+]1[O-],14.5 µM (inactive),17.8 µM (inactive),15.8 µM (inactive),–,26.2 µM (inactive),15.8 µM (inactive),17.2 µM (inactive),15.7 µM (inactive),20.1 µM (inactive),18.4 µM (inactive),15.9 µM (inactive),15.3 µM (inactive),17.6 µM (inactive),34.3 µM (inactive),16.7 µM (inactive),17.7 µM (inactive),6.62 µM (inactive),–,–,–
N#CC1=C(Cl)NC(Cl)=C(C#N)C1c1ccc(Cl)cc1,16.1 µM (inactive),17.5 µM (inactive),20.2 µM (inactive),17 µM (inactive),18 µM (inactive),32.4 µM (inactive),15.8 µM (inactive),16.6 µM (inactive),17.2 µM (inactive),22.1 µM (inactive),17.6 µM (inactive),16.3 µM (inactive),17 µM (inactive),25.9 µM (inactive),22.9 µM (inactive),21.3 µM (inactive),13 µM (inactive),–,–,–
COC(=O)c1c[nH]c2nc(N3CCOCC3)nn2c1=O,> 100 µM (inactive),> 100 µM (inactive),> 100 µM (inactive),> 100 µM (inactive),> 100 µM (inactive),> 100 µM (inactive),> 100 µM (inactive),> 100 µM (inactive),> 100 µM (inactive),> 100 µM (inactive),> 100 µM (inactive),> 100 µM (inactive),> 100 µM (inactive),> 100 µM (inactive),> 100 µM (inactive),> 100 µM (inactive),> 100 µM (inactive),–,–,–
CCOc1ccccc1NC(=O)C1=C(C)NC(C)=C(C(=O)Nc2ccccc2OCC)C1c1cccc([N+](=O)[O-])c1,66.8 µM (inactive),8.22 µM (inactive),–,32.1 µM (inactive),> 100 µM (inactive),51.2 µM (inactive),57.9 µM (inactive),> 100 µM (inactive),> 100 µM (inactive),31.6 µM (inactive),49.9 µM (inactive),> 100 µM (inactive),87.9 µM (inactive),23.5 µM (inactive),> 100 µM (inactive),58.3 µM (inactive),22.4 µM (inactive),–,–,–
